Experimental data reported in patent US20260256860A1, “TRADITIONAL CHINESE MEDICINE COMPOSITION FOR TREATING AMYOTROPHIC LATERAL SCLEROSIS AND USE THEREOF” (HEBEI YILING MEDICAL RESEARCH INSTITUTE CO., LTD, priority 2023, published 2026).
Where “and” joins values, the source holds several entries; their conditions need not be identical. Equal values may be shown once.

Assays:
Assay type in all cases: in vivo
[1] = test system: SOD1-G93A transgenic mice; experiment: Hanging test in SOD1-G93A transgenic mice; settings: Riluzole 0.02 g/kg gavage, 90 second cut-off
Protocol: (§1) After ALS model mice were determined to have significant changes compared to negative control mice in behavioral test by combining literature as well as prior experience, they were randomly grouped according to their body weight. The drug administration was started and mice were observed.
(§2) The corresponding drug solution was administered via gavage using a syringe at a volume of 10 ml/kg. The model group and negative control group were administered with an equivalent volume of sterile injectable water. The administration dose for each animal was adjusted weekly according to the animal's latest weighed weight.
• 2.6.1 The tail suspension test was carried out to observe straightening reflex of limbs. […] The scoring criteria are as follows: • 0 points—No flexion of the hindlimbs observed. • 1 point—Flexion observed in unilateral hindlimb, with no obvious flexion in the other. • 2 points—Flexion observed in bilateral hindlimbs. Mice with a score of 2 points were considered to be in the symptomatic phase. The tail suspension test was stopped when all ALS mice reached a score of 2 points. • 2.6.2 Hanging Test: The mouse was placed on a 3-mesh screen. The screen was then rapidly inverted, causing the mouse to hang upside down, and the timer was started. A 90 second cut-off time was set. The mice with a hanging time of less than 90 seconds were noted, and the actual time they remained hanged was recorded. The hanging test was discontinued upon the occurrence of death in ALS mice. […] The severity of this abnormality correlates with the degree of muscle atrophy and loss of muscle strength. In this study, the onset of disease in transgenic mice was determined based on the results of the tail suspension test. Additionally, guided by literature review and previous experimental experience, each mouse was sequentially evaluated by both the tail suspension and hanging tests.

[2] = test system: SOD1-G93A transgenic mice; experiment: Time to onset of paralysis in SOD1-G93A transgenic mice; settings: Riluzole 0.02 g/kg gavage
Protocol: Neurological function was evaluated during the dosing phase using the Snow scoring method twice weekly. […]
The time from administration to the first occurrence of a neurological function score ≥3.5 was defined as the time to onset of paralysis. The mean time to onset of paralysis of animals was calculated. […] The paralysis delay rate for each drug group was also calculated according to the following formula:
The time from administration to the first occurrence of a neurological function score ≥3.5 was defined as the time to onset of paralysis. The mean time to onset of paralysis of animals was calculated. […]

[3] = test system: SOD1-G93A transgenic mice; experiment: Immunofluorescence of gastrocnemius muscle and spinal cord, SOD1-G93A transgenic mice; settings: vs model control; Riluzole 0.02 g/kg; TCM-073 each administration group (1.5, 3.0, 6.0 g raw drug/kg); 30 days
Protocol: as §1, §2
(§3) After 30 days of administration, electrophysiological measurements were performed, and tissue material was collected for subsequent detections. • 2.7.1 Electrophysiological parameters
Based on the amount of spinal cord and muscle tissues harvested from mice, neuromuscular junction, stem cell regeneration, microglial senescence and degree of myelin and neuronal damage and repair were detected. For example, the muscular presynaptic marker (synaptotagmin-2) and the acetylcholine receptor (AChR) marker (α-BTX) were co-stained, the satellite cell marker (Pax7) and laminin 2a were co-stained, the myelin marker (myelin basic protein, MBP) was stained, and the neuronal marker (beta-III Tubulin, also known as Tuj-1) was stained. • 2.7.5 Molecular biological indicators
The muscular presynaptic marker (synaptotagmin-2) and acetylcholine receptor (AChR) marker (α-BTX) of the gastrocnemius muscle were detected by the immunofluorescence.
The satellite cell marker (Pax7) and laminin 2α of the gastrocnemius muscle were detected by the immunofluorescence.
The myelin marker (myelin basic protein, MBP) of the spinal cord was detected by the immunofluorescence.
The neuronal marker (beta-III Tubulin, also known as Tuj-1) of the spinal cord was detected by the immunofluorescence.

[4] = test system: SOD1-G93A transgenic mice; experiment: HE staining of sciatic nerve, lesion grading, SOD1-G93A transgenic mice; design: key to Axonal degeneration with myelin degeneration, lesion grade of individual animal: mild (+); moderate (++); moderately severe (+++); severe (++++); settings: for Lesion score (divided by gender): median of lesion grade points; for Axonal degeneration with myelin degeneration, lesion grade of individual animal: sciatic nerve HE, individual animals, listed as Positive drug control group
Protocol: as §1, §2, §3
HE staining was carried out to observe gastrocnemius muscle and sciatic nerve. Toluidine blue staining was carried out to observe the morphology and number of motor neurons in the spinal cord. • 2.7.4 Immunofluorescence

[5] = test system: SOD1-G93A transgenic mice; experiment: Immunoblotting of MBP and SV2A in spinal cord, SOD1-G93A transgenic mice; settings: Riluzole 0.02 g/kg gavage, 30 days, negative control 1.00
Protocol: as §1, §2, §3
Based on the amount of spinal cord tissue harvested from mice, myelin- and synapse-related molecular biological indicators were detected. The myelin- and synapse-related indicators included myelin basic protein (MBP) and synaptic vesicle protein 2A(SV2A).
Based on the amount of spinal cord tissue harvested from mice, myelin- and synapse-related molecular biological indicators, including myelin basic protein (MBP) and synaptic vesicle protein 2A (SV2A), were detected.

[6] = test system: SOD1-G93A transgenic mice; experiment: Compound muscle action potential electrophysiology in SOD1-G93A transgenic mice; settings: Riluzole 0.02 g/kg gavage, 30 days
Protocol: • 1.3.1 Animal Strain: B6SJL-Tg (SOD1-G93A) 1 Gur/J (Stock Number: 002726) provided by The Jackson Laboratory (United States). […] Both males and females were included. • 1.3.4 Animal Age: 7-8 weeks old. • 1.3.5 Animal Weight: At the start of dosing the body weight of male mice was 23.9-31.3 g, and the body weight of female mice was 17.7-25.4 g. • 1.3.6 Animal Source: Purchased from The Jackson Laboratory (United States). Breeding was conducted by Jiangsu GemPhanmatech Co., Ltd. • 1.3.7 Animal Certification of Quality, issuing authority, and receipt date: Certification number 320727210100609023. License number SCXK (Jiangsu) 2018-0008. Issuing authority: Jiangsu GemPharmatech Co., Ltd. Receipt date: Oct. 13, 2021. • 1.3.8 Feeding Conditions: Mice were reared in cages at the Innovative Drug Evaluation Center of Hebei Research Institute of Integrated Traditional Chinese and Western Medicine. License Number: SYXK (Hebei) 2020-006. Lighting: 12 h/day. Temperature: 20-26° C. Relative Humidity: 40%-70%. • 1.3.9 Quarantine Process: Animals were subjected to adaptive feeding for at least 5 days. […] Experimental Animal Production License Number: SCXK (Beijing) 2019-0003. Product Batch Number: 21073213. Expiration date: 2022 Jan. 3. • 1.3.11 Water: Clean water prepared by the ROB-B drinking water system for laboratory animal was provided, and filled in water bottles for free drinking. The drinking water was detected annually for all indicators, including mainly microbiological indicators, toxicological indicators, sensory characteristics, and general chemical parameters, and the detection was commissioned to a qualified institution. Microbial limit detection was performed every 2 months, which was commissioned to the Quality Control Department of Shijiazhuang Yiling Pharmaceutical Co., Ltd. The detection reports were stored by the animal department and archived annually. • 1.3.12 Bedding: Corn cob bedding (common grade) provided by Beijing Keao Xieli Feed Co., Ltd., was sterilized by high temperature and high pressure before use. Experimental Animal Production License Number: SCXK (Beijing) 2020-0010. Batch Number: 21099811. • 1.3.13 Marking: Mice were marked with ear tags, provided by Globalebio (Beijing) Technology Co., Ltd.
as §1
The drug was orally administered via gavage, consistent with the clinically recommended oral administration.
The administration dose for mice was 10 times the clinical dose, approximately 0.02 g/kg. The used administration volume was 10 ml/kg and administration concentration was 0.02 g/10 ml. […] During the preparation, one tablet was taken, ground with sterile injectable water and adjusted to a final volume of 25 ml. The obtained liquor can be used based on the number of animals.
The proposed clinical dose of TCM-073 was 18 g of raw drug/day. This test set three doses: low dose (1.5 g raw drug/kg), medium dose (3.0 g raw drug/kg), and high dose (6.0 g raw drug/kg), corresponding to 5, 10, and 20 times the clinical dose, respectively (See Table 14 for details). An appropriate amount of the drug was weighed and ground using sterile injectable water as the solvent to prepare high, medium, and low doses.
as §2
Based on preliminary experimental experience, literature review, and the disease characteristics of this mouse strain, the administration was started when the mice were 70 days old. […]

[7] = test system: SOD1-G93A transgenic mice; experiment: Serum malondialdehyde (MDA) in SOD1-G93A transgenic mice; settings: Mus musculus, po, 720 h; read-out: % Inhibition rate (on oxidative damage, from MDA content)
Protocol: Blood of mice was collected by removal of eyeball. The blood samples were allowed to stand until supernatant separated out, and then centrifuged at 3,000 rpm for 10 minutes at 4° C. to isolate serum. The serum was aliquoted into EP tubes and stored in an ultra-low temperature refrigerator (−80° C.). MDA content was measured. The inhibition rate on oxidative damage by each drug group was calculated according to MDA content, following the formula of.
Blood of mice was collected by removal of eyeball. Blood samples were allowed to stand until supernatant separated out, and then centrifuged at 3,000 rpm for 10 minutes at 4° C. to isolate serum. The MDA content was measured using a kit, and the inhibition rate on oxidative damage by each drug group was calculated according to MDA content.

[8] = test system: SOD1-G93A transgenic mice; experiment: Neurological function score (Snow scoring) in SOD1-G93A transgenic mice; settings: Riluzole 0.02 g/kg gavage
Protocol: as §1, §2
Neurological function was evaluated during the dosing phase using the Snow scoring method twice weekly. The specific criteria for neurological system scoring are as follows. • 1.0 point—Abnormal extension or tremors of hind limbs of the mouse when suspended by tail. • 1.5 points—Weakness of unilateral hind limb • 2.0 points—Weakness of bilateral hind limbs along with abnormal gait. • 2.5 points—Obvious weakness of unilateral hind limb. • 3.0 points—Obvious weakness of bilateral hind limbs. • 3.5 points—Paralysis in unilateral hind limb. • 4.0 points—Paralysis in bilateral hind limbs. • 5.0 points—Inability of mouse to right itself from a supine position within 20 seconds.

[9] = Riluzole 0.02 g/kg gavage, female
[10] = Riluzole 0.02 g/kg gavage, male

Nc1nc2ccc(OC(F)(F)F)cc2s1 [Riluzole]
Hanging time ([1]; 31 d of administration): 63.3 ± 29.2 s | Hanging time ([1]; 34 d of administration): 57.6 ± 2.6 s | Hanging time ([1]; 39 d of administration): 46.5 ± 29.8 s | Hanging time ([1]; 42 d of administration): 40.8 ± 30.7 s | Hanging time ([1]; 46 d of administration): 33.8 ± 27.2 s | Time to onset of paralysis ([2]; female): 139.6 ± 5.7 days | Time to onset of paralysis ([2]; male): 129.2 ± 18.9 days | Co-localization degree of synaptotagmin-2 and α-BTX (neuromuscular junction), gastrocnemius muscle [3]: increased the co-localization degree of neuromuscular junctions | MBP (myelin marker) expression in spinal cord, immunofluorescence [3]: increased the expression levels of the myelin marker | Number of Pax7-positive satellite cells in the gastrocnemius muscle [3]: increased the number of positive satellite cells in the gastrocnemius muscle | Tuj-1 (neuronal marker) expression in spinal cord, immunofluorescence [3]: increased the expression levels of the myelin marker and neuronal marker | Sciatic nerve axonal degeneration with myelin degeneration, number of samples per lesion grade ([4]; Riluzole 0.02 g/kg gavage, 6 samples): myelin degeneration (1 sample: +++, 4 samples: ++, 1 sample: +). | Lesion score (divided by gender) [4, 9]: 2 | Lesion score (divided by gender) [4, 10]: 2 | Group Score (lesion) ([4]; Riluzole 0.02 g/kg gavage, median of lesion grade points of the group): 2 | Axonal degeneration with myelin degeneration, lesion grade of individual animal [4, 9]: + and ++ (2×) | Axonal degeneration with myelin degeneration, lesion grade of individual animal [4, 10]: ++ (2×) and +++ | Sciatic nerve pathological changes (HE staining) compared to the model control group ([4]; Riluzole 0.02 g/kg, TCM-073 high dose 6.0 g raw drug/kg): slightly milder | MBP content in spinal cord [5]: 0.99 ± 0.62 | SV2A content in spinal cord [5]: 0.41 ± 0.15 | Peak value of action potential ([6]; female): 10.4 ± 4.0 | Time course within region of interest of action potential ([6]; female): 0.0018 ± 0.0002 | Wave amplitude of action potential ([6]; female): 14.8 ± 5.6 | Peak value of action potential ([6]; male): 8.8 ± 2.2 | Time course within region of interest of action potential ([6]; male): 0.0016 ± 0.0001 | Wave amplitude of action potential ([6]; male): 11.2 ± 3.9 | Peak value of action potential ([6]; no division by gender): 9.6 ± 3.3 | Time course within region of interest of action potential ([6]; no division by gender): 0.0017 ± 0.0002 | Wave amplitude of action potential ([6]; no division by gender): 13.0 ± 5.0 | inhibition at 20 mg/kg [7]: 20% | Neurological function score ([8]; 31 d of administration): 2.2 ± 0.4 | Neurological function score ([8]; 34 d of administration): 2.2 ± 0.4 | Neurological function score ([8]; 39 d of administration): 2.2 ± 0.5 | Neurological function score ([8]; 42 d of administration): 2.3 ± 0.5 | Neurological function score ([8]; 46 d of administration): 2.2 ± 0.4
